# Measured values as given in patent publication US20180002366A1, “4'-SUBSTITUTED NUCLEOSIDE REVERSE TRANSCRIPTASE INHIBITORS” (MERCK SHARP & DOHME CORP., priority 2014, published 2018).
# How the values were obtained:
# [1] = molecular target: T1, HIV-1 RT enzyme (Human immunodeficiency virus type 1 group M subtype B, UniProt P03366); assay: RT Polymerase Assay; format: biochemical
# T1 construct: Full-length wild-type and 2 mutant RT proteins were expressed in Escherichia coli BL21(DE3) cells and purified; made in house; host or cells: Escherichia coli BL21(DE3)
# Procedure: Full-length wild-type and 2 mutant RT proteins were expressed in Escherichia coli BL21(DE3) cells and purified. Briefly, the heterodimeric nucleic acid substrate used in the HIV-1 RT polymerase reactions was generated by annealing biotinylated DNA primer to a 500 nucleotide RNA template. The HIV-1 RT enzyme (final concentration of […]) was combined with an inhibitor compound or DMSO (10% DMSO in the final reaction mixture) in assay buffer (62.5 mM Tris-HCl, pH 7.8, 1.25 mM dithiothreitol, 7.5 mM MgCl2, 100 mM KCl, 0.03% CHAPS, 0.125 mM EGTA). This mixture was pre-incubated for 30 minutes at room temperature in microtiter plates. The polymerization reaction was initiated by the addition of template/primer substrate (final concentration: 16.6 nM) and dNTPs (final concentration: 2 μM dCTP, dGTP, dATP, and 66.6 nM Ru-dUTP). After 90 min of incubation at 37° C., reactions were quenched by the addition of EDTA (25 mM). The resulting mixture was incubated for an additional 5 minutes at room temperature followed by transferring the solution (50 μL) to blocked avidin plate from Meso Scale Discovery (MSD). The mixtures were incubated at room temperature for 60 min prior to the quantification of the reaction product via an ECL 6000 imager instrument.
# [2] = tested on: HIV-1 (H9IIIB virus) replication in MT4-GFP cells; assay: Viking Assay: antiviral potency in a multiple round HIV-1 infection assay; format: cell-based; conditions: Human immunodeficiency virus 1, 10% normal human serum, inhibition of reproductive ratio R0 between ~48 h and ~72 h post-infection, read-out: Viking, IC50 (10% NHS)
# Procedure: Assessing Antiviral Potency in a Multiple Round HIV-1 Infection Assay.
# Cells were then washed and re-suspended in either RPMI 1640 containing 10% or 50% normal human serum at 1.6×10^5 cells/mL (10% or 50% NHS conditions) or in 100% normal human serum at 2×10^5 cells/mL (100% NHS conditions).
# The increase in the number of green cells over ˜24 h period gives the reproductive ratio, R0, which is typically 5-15 and has been shown experimentally to be in logarithmic phase (data not shown). Inhibition of R0 is calculated for each well, and IC50s determined by non-linear 4-parameter curve fitting.
# [3] = tested on: HIV-1 (H9IIIB virus) replication in MT4-GFP cells; assay: Antiviral Persistence assay; conditions: for Fold shift IC50 72 h/24 h: ratio of IC50 72 h to IC50 24 h
# Procedure: HIV-1 replication was monitored using MT4-gag-GFP clone D3 (hereafter designate MT4-GFP), which are MT-4 cells modified to harbor a GFP reporter gene, the expression of which is dependent on the HIV-1 expressed proteins tat and rev. Productive infection of an MT4-GFP cell with HIV-1 results in GFP expression approximately 24 h post-infection. MT4-GFP cells were maintained at 37° C./5% CO2/90% relative humidity in RPMI 1640 supplemented with 10% fetal bovine serum, 100 U/mL penicillin/streptomycin, and 400 μg/mL G418 to maintain the reporter gene. For 72 hour time point persistence assay (72 h plate) and 24 hour time point control assay (24 h plate), MT4-GFP cells were washed and re-suspended in RPMI 1640 containing 10% normal human serum at either 1.6×10^5 or 2.4×10^5 cells/mL (10% NHS). Compound plates were prepared by dispensing compounds dissolved in DMSO into wells of 384 well cell culture plates ([…]) using an ECHO acoustic dispenser. Each compound was tested in a 10 point serial 3-fold dilution (typical final concentrations: 4.2 μM-0.21 nM). Controls included no inhibitor (DMSO only) and a combination of three antiviral agents (efavirenz, indinavir, and an integrase strand transfer inhibitor at final concentrations of 4 μM each). Cells were added (50 μL/well) to compound plates and were incubated at 37° C./5% CO2/90% relative humidity for 24 hours. The cells were washed with 5×40 uL of RPMI 1640 supplemented with 10% NHS and 100 U/mL penicillin/streptomycin. 72 h plate was return back to 37° C. incubator for additional 48 hour incubation. 40 uL of the cells from each well of the 24 h plate or the 72 h plate (after 48 hour incubation post wash) were transferred to a poly-D-lysine coated plate. The cells were then infected with H9IIIB virus at an approximate multiplicity of infection of 0.1 in the same incubation conditions.
# Infected cells were quantified at ˜24 h post-infection, by counting the number of green cells in each well using an Acumen eX3 scanner. IC50s for the compounds in Table 4 were determined by non-linear 4-parameter curve fitting.
# The antiviral persistence assay is meant to assess for the persistence of antiviral activity upon removal of the nucleoside. […] The publication AIDS Research and Therapy, 2009, 6:5, highlights the value of antiviral persistence.
# [4] = Human immunodeficiency virus 1, 24 h, read-out: IC50 24 h (nM)
# [5] = Human immunodeficiency virus 1, read-out: IC50 72 h (nM)
Structure (SMILES),IC50 [1] [nM],IC50 [2] [nM],"IC50 [3, 4] [nM]","IC50 [3, 5] [nM]",Fold shift IC50 72 h/24 h [3]
"C#C[C@]1(COP(=O)(O)OP(=O)(O)OP(=O)(O)O)O[C@@H](n2cc(Cl)c3c(N)ncnc32)C[C@@H]1O [Example 17, ammonium ((2R,3S,5R)-5-(4-amino-5-chloro-7H-pyrrolo[2,3-d]pyrimidin-7-yl)-2-ethynyl-3-hydroxytetrahydrofuran-2-yl)methyl triphosphate]",842,–,–,–,–
"C#C[C@]1(CO)O[C@@H](n2cc(Br)c3c(N)ncnc32)C[C@@H]1O [Example 5, (2R,3S,5R)-5-(4-amino-5-bromo-7H-pyrrolo[2,3-d]pyrimidin-7-yl)-2-ethynyl-2-(hydroxymethyl)tetrahydrofuran-3-ol]",–,209,22000,> 42000,>1.9
"Cc1cn([C@H]2C[C@H](N=[N+]=[N-])[C@@H](CO)O2)c(=O)[nH]c1=O [AZT, 3′-azido-3′-deoxythymidine, reference compound]",–,37,37,4710,127
"C#C[C@]1(COP(=O)(O)OP(=O)(O)OP(=O)(O)O)O[C@@H](n2cc(F)c3c(N)ncnc32)C[C@@H]1O [Example 14, ammonium ((2R,3S,5R)-5-(4-amino-5-fluoro-7H-pyrrolo[2,3-d]pyrimidin-7-yl)-2-ethynyl-3-hydroxytetrahydrofuran-2-yl)methyl triphosphate]",210,–,–,–,–
"C#C[C@]1(COP(=O)(O)OP(=O)(O)OP(=O)(O)O)O[C@@H](n2ccc3c(N)nc(Cl)nc32)C[C@@H]1O [Example 16, bis-triethylammonium ((2R,3S,5R)-5-(4-amino-2-chloro-7H-pyrrolo[2,3-d]pyrimidin-7-yl)-2-ethynyl-3-hydroxytetrahydrofuran-2-yl)methyl triphosphate]",1820,–,–,–,–
"C#C[C@]1(CO)O[C@@H](n2cc(Cl)c3c(N)ncnc32)C[C@@H]1O [Example 6, (2R,3S,5R)-5-(4-amino-5-chloro-7H-pyrrolo[2,3-d]pyrimidin-7-yl)-2-ethynyl-2-(hydroxymethyl)tetrahydrofuran-3-ol]",–,128,99,970,9.8
"C#C[C@]1(COP(=O)(O)OP(=O)(O)OP(=O)(O)O)O[C@@H](n2ccc3c(N)ncnc32)C[C@@H]1O [Example 13, ammonium ((2R,3S,5R)-5-(4-amino-7H-pyrrolo[2,3-d]pyrimidin-7-yl)-2-ethynyl-3-hydroxytetrahydrofuran-2-yl)methyl triphosphate]",933,–,–,–,–
"C#C[C@]1(COP(=O)(O)OP(=O)(O)OP(=O)(O)O)O[C@@H](c2cnc3c(N)ncnn23)C[C@@H]1O [Example 21, ammonium ((2R,3S,5R)-5-(4-aminoimidazo[2,1-f][1,2,4]triazin-7-yl)-2-ethynyl-3-hydroxytetrahydrofuran-2-yl)methyl triphosphate]",905,–,–,–,–
"C#C[C@]1(CO)O[C@@H](n2cc(C)c3c(N)ncnc32)C[C@@H]1O [Example 3, (2R,3S,5R)-5-(4-amino-5-methyl-7H-pyrrolo[2,3-d]pyrimidin-7-yl)-2-ethynyl-2-(hydroxymethyl)tetrahydrofuran-3-ol]",–,485,470,2500,5.3
"N#C[C@]1(COP(=O)(O)OP(=O)(O)OP(=O)(O)O)O[C@@H](n2ccc3c(N)ncnc32)C[C@@H]1O [Example 18, bis-triethylammonium ((2R,3S,5R)-5-(4-amino-7H-pyrrolo[2,3-d]pyrimidin-7-yl)-2-cyano-3-hydroxytetrahydrofuran-2-yl)methyl triphosphate]",4150,–,–,–,–
"C#C[C@]1(COP(=O)(O)OP(=O)(O)OP(=O)(O)O)O[C@@H](c2cnn3c(N)ncnc23)C[C@@H]1O [Example 20, ammonium ((2R,3S,5R)-5-(4-aminopyrazolo[1,5-a][1,3,5]triazin-8-yl)-2-ethynyl-3-hydroxytetrahydrofuran-2-yl)methyl triphosphate]",1290,–,–,–,–
"C#C[C@]1(COP(=O)(O)OP(=O)(O)OP(=O)(O)O)O[C@@H](n2cc(C)c3c(N)ncnc32)C[C@@H]1O [Example 15, ammonium (2R,3S,5R)-5-(4-amino-5-methyl-7H-pyrrolo[2,3-d]pyrimidin-7-yl)-2-ethynyl-3-hydroxytetrahydrofuran-2-yl)methyl triphosphate]",6240,–,–,–,–
"C#C[C@]1(CO)O[C@@H](n2cc(I)c3c(N)ncnc32)C[C@@H]1O [Example 7, (2R,3S,5R)-5-(4-amino-5-iodo-7H-pyrrolo[2,3-d]pyrimidin-7-yl)-2-ethynyl-2-(hydroxymethyl)tetrahydrofuran-3-ol]",–,1030,17000,17000,1
"N#C[C@]1(CO)O[C@@H](n2ccc3c(N)ncnc32)C[C@@H]1O [Example 10, (2R,3S,5R)-5-(4-amino-7H-pyrrolo[2,3-d]pyrimidin-7-yl)-3-hydroxy-2-(hydroxymethyl)tetrahydrofuran-2-carbonitrile]",–,128,170,1800,10.5
"C#C[C@]1(COP(=O)(O)OP(=O)(O)OP(=O)(O)O)O[C@@H](c2ccc3c(N)ncnn23)C[C@@H]1O [Example 19, ammonium ((2R,3S,5R)-5-(4-aminopyrrolo[2,1-f][1,2,4]triazin-7-yl)-2-ethynyl-3-hydroxytetrahydrofuran-2-yl)methyl triphosphate]",3540,–,–,–,–
